Experiment: Assay on drug metabolism in rat
Assay type: in vivo, SD rats
Conditions: SD, plasma, iv, 30 mg/Kg via jugular vein
Description: 50 SD rats (purchased from Shanghai SLAC Laboratory Animal Co., Ltd) were divided into 5 groups randomly, 10 rats per group. After anesthesia with ether, rat was fixed on the operating table on its back, and was shaved at the operative site of neck. After disinfection with 75% alcohol, the neck was cut about 1.5 cm longitudinally, muscle tissues and nervi vascularis surrounding trachea were separated by blunt dissection, and carotid artery was separated by blunt dissection. Ligation was performed at distal end, an artery clamp was used at proximal part, and the distance between them was about 1 cm. A small cut was made with a pair of ophthalmic scissors at proximal part close to the ligated site, and arterial duct was introduced from the small cut to the proximal part, the artery clamp was loosened, the arterial ostium was clamped with smooth forceps, whilst the arterial duct was delivered to heart ventricle. Upon the introduction of the arterial duct into heart ventricle, the blood vessel was ligated. By using the same intubation method for artery, intubation was applied to jugular veins. After intubation, a tubule filled with heparin sodium was drawn out from artery and vein, which passed through the skin under the ear of the rat and drawn out from the dorsal part skin of the neck of the rat, and the tubule was fixed well. The muscles and skin were sutured at the surgical site of the rat, and normal saline containing heparin sodium was injected from time to time via the tubule connecting the artery and the vein to prevent tubule obstruction due to blood coagulation. The rat was placed in a warm and clean cage provided with water and food, waiting for the rat to wake up naturally.
After the rat regained consciousness and acted normally, assay on metabolic stability of compounds was performed in the rat. All the agents to be injected (including compounds to be tested and control drug) were dissolved in a mixed solvent of PEG400:Tween 80:normal saline (at a volume ratio of 5:5:90), at a concentration of 5 mg/mL. The agent was injected slowly at a dose of 30 mg/Kg via the tubule drawn out from the jugular vein. After administration, the time was recorded, and blood was collected from the tubule drawn out from carotid artery at 2, 5, 10, 20, 30, 60, 240, 360, and 720 min, in an amount of 200 μL for each time. The whole blood was placed in commercially available heparin sodium blood-collecting tube (Jiangxi Jingzhi Medical Equipment Co., Ltd.), centrifuged at 1800 g for 15 min. To the supernatant plasma, 150 μL pre-cooled methanol stopping buffer (containing internal standard E8, 1 nmol/sample) was added, vertically mixed well, and then centrifuged at 4° C., 12000 g for 10 min. The supernatant was transferred to a sample vial, the target compound was detected by LC-MS/MS, and the content of the compound was calculated by virtue of standard curve.

SMILES: O=C(CCCCCc1ccccc1)N1CCOC1=O [Compound 2, Phenylhexanoyl Oxazolidinone]
- half-life: 2.4 h

SMILES: O=C(CCCCCc1cccc(Cl)c1)N1CCOC1=O [Compound 9, 3-Chlorophenylhexanoyl Oxazolidinone]
- half-life: 1.95 h

Source: patent US10174015B2, “Substituted heterocyclic derivative, preparation method and use thereof” (Xiamen University, priority 2014, dated 2019)
